From patent US8609688B2, “Substituted imidazopyridinyl-aminopyridine compounds” (ArQule, Inc., priority 2011, dated 2013)
pIC50, pKd: −log10 of the molar value.

Key:
[1] = biological target: T1, Full-length inactive AKT1 (Homo sapiens (Human), UniProt P31749); assay: Thermal Shift Assay (protein-ligand binding); settings: Kd at 25° C. calculated using constant ligand binding enthalpy −15 kcal/mol; 15 μM compound, ANS dye
Protocol: Binding analysis. Protein-ligand binding was identified with the thermal shift assay which is based on the ligand-induced stabilization of the protein tertiary structure. The thermal stability of the ligand-Akt1 complex was assessed by subjecting the complex to a set temperature gradient and by comparison of the meltion temperature of the Akt1-ligand complex with the melting temperature of the protein alone. Protein unfolding was monitored by the fluorescence readout of an environmentally sensitive fluorescent dye, 1-anilinonaphthalene-8-sulfonic acid (ANS). […] The PCR plate was placed into a RT-PCR instrument and a temperature gradient was performed, increasing from 27 to 80° C., at 1° C./30 sec heat rate with a dwell time of 20 sec. The change in ANS fluorescence was measured using the filter set of 475 nm/525 nm excitation/emission.

[2] = biological target: T1, Full-length inactive AKT1; assay: Inactive Akt Alpha Screen Assay; settings: 8 nM inactive Akt1 activated by PDK1 and MAPKAPK2, lipid vesicles, 50 μM ATP, biotinylated crosstide; read-out: Akt1 biochemical assay IC50 AlphaScreen crosstide
Protocol: AKT1 activity was assayed using the GSK3-derived biotinylated peptide substrate, crosstide (biotin-[…]), and AlphaScreen™ (Amplified Luminescent Proximity Homogeneous Assay) technology. AKT1 activation was achieved by the addition of the activating kinases PDK1 and MAPKAPK2, lipid vesicles, and ATP. The extent of peptide phosphorylation was determined using a phospho-AKT substrate antibody and acceptor beads conjugated to Protein A and donor beads conjugated to streptavidin that bind to the biotin on the peptide. Excitation of the donor beads converted ambient oxygen to excited singlet oxygen which, when in close proximity to acceptor beads, reacted with acceptor beads resulting in signal amplification.
After a 20 minute pre-incubation at room temperature, the kinase reaction was initiated by the addition of 5 μL of an activation mixture diluted in assay buffer containing biotinylated crosstide, PDK1, MAPKAPK2, DOPS/DOPC, PtdIns(3,4,5)P3, and ATP for final concentrations of 60 nM biotinylated crosstide, 0.1 nM PDK1, 0.7 nM MK2, 5.5 μM DOPS, 5.5 μM DOPC, 0.5 μM PtdIns(3,4,5)P3, and 50 μM ATP. The plates were incubated for 30 minutes at room temperature, and then stopped in the dark by the addition of 10 μL stop/detection mixture prepared in assay buffer containing EDTA, AlphaScreen™ Streptavidin Donor and Protein A Acceptor beads, and phospho-AKT substrate antibody for final concentrations of 10 mM EDTA, 500 ng/well of both AlphaScreen™ Streptavidin Donor beads and Protein A Acceptor beads, and phospho-AKT substrate antibody at a final dilution of 1:350. Assay plates were incubated for 90 minutes at room temperature in the dark, and the plates were read on a Perkin Elmer Envision Multilabel plate reader (excitation wavelength: 640 nm, emission wavelength: 570 nm). […]

[3] = system: cells; assay: Cell proliferation / viability GI50 (MTS assay or ATP quantitation assay); format: cell-based; settings: 72 hours treatment; cell line and assay (MTS or ATP quantitation) not stated
Protocol: Cell proliferation analysis. Cell survival was determined by the MTS assay. Briefly, cells were plated in a 96-well plate at 2,000-10,000 cells per well, cultured for 24 hours in complete growth medium, and then treated with various drugs and drug combinations for 72 hours. MTS was added and incubated for 4 hour, followed by assessment of cell viability using the microplate reader at 570 nm. Data were normalized to untreated controls and analyzed with Microsoft Excel.
Cell viability analysis. Cell viability was determined by the ATP quantitation assay. Briefly, cells were plated in a 96-well plate at 2,000-10,000 cells per well, cultured for 24 hours in complete growth medium, and then treated with various drugs or combination of drugs for 72 hours. CellTiter-Glo® reagent was added and incubated at room temperature for 10 minutes, followed by assessment of cell viability using a luminometer. Data were normalized to untreated controls and analyzed with Microsoft Excel.

[4] = system: Phospho-Akt (S473); assay: Cell ELISA Assay, Phospho-Akt detection; format: cell-based; settings: cells treated for 1 hour, cell line not stated
Protocol: Phospho-Akt detection analysis. Phospho-Akt (S473) was detected using cell ELISA. Briefly, cells were plated in a 96-well plate at 7,000-10,000 cells per well, cultured for 2-3 days in complete growth medium, and then treated with various drugs or combinations of drugs for 1 hour. The cells were fixed with ice-cold methanol, and washed with TBS supplemented with 1% H2O2. Phospho-Akt (S473) was probed with corresponding rabbit antibody as a primary antibody, and horseradish peroxidase conjugated goat anti-rabbit IgG. After treatment with SuperSignal® ELISA for 15 minutes, the detection was performed using a luminometer. Data were normalized to untreated controls and analyzed with Microsoft Excel.

T1 sequence (P31749 whole entry): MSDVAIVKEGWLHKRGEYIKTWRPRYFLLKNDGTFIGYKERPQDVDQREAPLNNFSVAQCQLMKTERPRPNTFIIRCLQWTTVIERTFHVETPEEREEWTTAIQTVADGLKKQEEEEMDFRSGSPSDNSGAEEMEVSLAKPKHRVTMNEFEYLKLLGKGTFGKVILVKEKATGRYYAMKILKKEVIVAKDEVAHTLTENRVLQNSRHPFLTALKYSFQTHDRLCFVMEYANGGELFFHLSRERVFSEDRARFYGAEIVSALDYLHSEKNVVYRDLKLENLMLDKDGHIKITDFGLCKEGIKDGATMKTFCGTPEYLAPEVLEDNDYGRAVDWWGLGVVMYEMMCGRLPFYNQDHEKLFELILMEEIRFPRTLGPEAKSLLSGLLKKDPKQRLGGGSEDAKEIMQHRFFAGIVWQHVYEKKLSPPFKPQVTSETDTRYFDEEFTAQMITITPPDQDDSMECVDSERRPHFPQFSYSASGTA

- pKd [1]: 8.96
- pIC50 [2]: 8.74
- pIC50 [4]: 7.96
Structure (SMILES): Nc1ncccc1-c1nc2ccc(-c3cccc(N4CCN(C(=O)C5CC5)CC4)c3)nc2n1-c1ccc(C2(N)CCC2)cc1 [Cmpd 14, (4-(3-(3-(4-(1-aminocyclobutyl)phenyl)-2-(2-aminopyridin-3-yl)-3H-imidazo[4,5-b]pyridin-5-yl)phenyl)piperazin-1-yl)(cyclopropyl)methanone]
- GI50 [3]: 296000 nM
